Drawing on patent publication US20240287076A1, “COMPOUNDS FOR TARGETING DEGRADATION OF BRUTON'S TYROSINE KINASE” (BIOGEN MA INC., priority 2021, published 2024), this text covers DC50 for 20 molecules.

This assay deals with T1, BTK (Homo sapiens, UniProt Q06187).
T1 construct: The GM01501.3 cell line endogenously expresses BTK with a HiBiT fusion tag via CRISPR knock-in at its C-terminal region; endogenous in cells; host or cells: GM01501.3 (GM01501 cells engineered by CRISPR knock-in of HiBiT at the BTK locus)
T1 sequence (Q06187 whole entry, the tested form may be a part): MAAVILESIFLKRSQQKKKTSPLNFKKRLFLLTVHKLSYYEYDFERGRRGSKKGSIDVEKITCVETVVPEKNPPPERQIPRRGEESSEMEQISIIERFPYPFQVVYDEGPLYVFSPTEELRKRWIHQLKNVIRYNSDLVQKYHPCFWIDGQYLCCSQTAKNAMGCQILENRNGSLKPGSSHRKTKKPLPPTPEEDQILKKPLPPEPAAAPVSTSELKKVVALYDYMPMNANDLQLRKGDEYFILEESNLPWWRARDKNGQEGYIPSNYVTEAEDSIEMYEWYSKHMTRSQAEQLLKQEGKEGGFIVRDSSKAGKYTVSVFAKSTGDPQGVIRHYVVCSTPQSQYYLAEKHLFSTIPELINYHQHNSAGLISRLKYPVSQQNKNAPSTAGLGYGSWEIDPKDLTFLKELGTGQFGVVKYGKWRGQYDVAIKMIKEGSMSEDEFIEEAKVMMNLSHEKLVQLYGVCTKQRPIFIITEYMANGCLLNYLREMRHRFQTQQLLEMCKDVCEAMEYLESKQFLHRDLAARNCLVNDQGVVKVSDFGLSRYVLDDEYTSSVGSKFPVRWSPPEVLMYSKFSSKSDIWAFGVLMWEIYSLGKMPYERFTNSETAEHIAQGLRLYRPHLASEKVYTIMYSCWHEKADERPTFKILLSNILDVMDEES
Nature of the assay: BTK degradation assay using the HiBiT Method (Nano-Glo HiBiT Lytic Assay, GM01501.3 cells). It is filed as cell-based. The conditions noted are these: HiBiT Degradation on GM01501.3 BTK @ 6 hours. The method, boiled down: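 Degradation read-out: HiBiT luminescence after lytic reagent addition, giving DC50. Compounds dosed from 10 μM in 11 half-log steps (duplicate) onto GM01501.3 cells, whose endogenous BTK carries a C-terminal HiBiT knock-in tag; 6 h exposure, 37 °C, 5% CO2.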
`Cc1cc(-c2ccnc3sc(-c4ccc(CN5CCC(c6ccc(NC7CCC(=O)NC7=O)cc6)CC5)cc4)cc23)ccc1CNC(=O)c1noc(C(C)(C)C)n1` (centres unmarked) [Example 157, 5-tert-butyl-N-[[4-[2-[4-[[4-[4-[(2,6-dioxo-3-piperidyl)amino]phenyl]-1-piperidyl]methyl]phenyl]thieno[2,3-b]pyridin-4-yl]-2-methyl-phenyl]methyl]-1,2,4-oxadiazole-3-carboxamide] had a DC50 of 100 to 500 nM. The same measure for `Cn1nc(N2CCC(=O)NC2=O)c2ccc(C3CCN(Cc4ccc(-c5cc6c(-c7ccc(CNC(=O)c8noc(C(C)(C)C)n8)c(F)c7)ncnn6c5)cn4)CC3)cc21` [Example 244, 5-(tert-butyl)-N-(4-(6-(6-((4-(3-(2,4-dioxotetrahydropyrimidin-1(2H)-yl)-1-methyl-1H-indazol-6-yl)piperidin-1-yl)methyl)pyridin-3-yl)pyrrolo[2,1-f][1,2,4]triazin-4-yl)-2-fluorobenzyl)-1,2,4-oxadiazole-3-carboxamide]: less than 100 nM; for `Cc1cc(-c2ncnn3cc(-c4ccc(CN5CCC(c6ccc(NC7CCC(=O)NC7=O)cc6)CC5)cc4)cc23)ccc1CNC(=O)c1cc2c(s1)CCCC2` (centres unmarked) [Example 71, N— [[4-[6-[4-[[4-[4-[(2,6-dioxo-3-piperidyl)amino]phenyl]-1-piperidyl]methyl]phenyl]pyrrolo[2,1-f][1,2,4]triazin-4-yl]-2-methyl-phenyl]methyl]-4,5,6,7-tetrahydrobenzothiophene-2-carboxamide]: less than 100 nM. As to `Cc1cc(-c2ncnn3cc(CCCCN4CCC(c5ccc6c(N7CCC(=O)NC7=O)nn(C)c6c5F)CC4)cc23)ccc1CNC(=O)c1noc(C(C)(C)C)n1` [Example 278, 5-(tert-butyl)-N-(4-(6-(4-(4-(3-(2,4-dioxotetrahydropyrimidin-1(2H)-yl)-7-fluoro-1-methyl-1H-indazol-6-yl)piperidin-1-yl)butyl)pyrrolo[2,1-f][1,2,4]triazin-4-yl)-2-methylbenzyl)-1,2,4-oxadiazole-3-carboxamide], the DC50 is less than 100 nM. `Cc1cc(-c2ncnn3cc(-c4ccc(-c5n[nH]cc5CN5CCC(c6ccc(C7CCC(=O)NC7=O)cc6)CC5)s4)cc23)ccc1CNC(=O)c1noc(C(C)(C)C)n1` (centres unmarked) [Example 220, 5-(tert-butyl)-N-(4-(6-(5-(4-((4-(4-(2,6-dioxopiperidin-3-yl)phenyl)piperidin-1-yl)methyl)-1H-pyrazol-3-yl)thiophen-2-yl)pyrrolo [2,1-f][1,2,4]triazin-4-yl)-2-methylbenzyl)-1,2,4-oxadiazole-3-carboxamide] had a half-maximal degradation concentration (DC50) of less than 100 nM. The molecule `Cc1cc(-c2ncnn3cc(-c4cnn(CCN5CCC(c6ccc7c(C8CCC(=O)NC8=O)nn(C)c7c6)CC5)c4)cc23)ccc1CNC(=O)c1noc(C(C)(C)C)n1` (centres unmarked) [Example 299, 5-(tert-butyl)-N-(4-(6-(1-(2-(4-(3-(2,6-dioxopiperidin-3-yl)-1-methyl-1H-indazol-6-yl)piperidin-1-yl)ethyl)-1H-pyrazol-4-yl)pyrrolo[2,1-f][1,2,4]triazin-4-yl)-2-methylbenzyl)-1,2,4-oxadiazole-3-carboxamide] registered a DC50 of less than 100 nM. For `Cc1cc(-c2ncnn3cc(CCCCc4ccc(-c5ccc(C6CCC(=O)NC6=O)cc5)cc4)cc23)ccc1CNC(=O)c1noc(C(C)(C)C)n1` (centres unmarked) [Example 151, 5-tert-butyl-N-[[4-[6-[4-[4-[4-(2,6-dioxo-3-piperidyl)phenyl]phenyl]butyl]pyrrolo[2,1-f][1,2,4]triazin-4-yl]-2-methyl-phenyl]methyl]-1,2,4-oxadiazole-3-carboxamide] the value was 100 to 500 nM. `O=C1CCC(Nc2ccc(C3CCN(Cc4ccc(-c5cc6c(-c7ccc(CNC(=O)c8ccc(C(F)F)cc8)c(F)c7)ncnn6c5)cc4)CC3)cc2)C(=O)N1` (centres unmarked) [Example 101, 4-(difluoromethyl)-N-[[4-[6-[4-[[4-[4-[(2,6-dioxo-3-piperidyl)amino]phenyl]-1-piperidyl]methyl]phenyl]pyrrolo[2,1-f][1,2,4]triazin-4-yl]-2-fluoro-phenyl]methyl]benzamide] showed a DC50 of less than 100 nM. The molecule `Cc1cc(-c2ncnn3cc(-c4cccc(-n5cc(CN6CCC(c7ccc(C8CCC(=O)NC8=O)cc7)CC6)c(C)n5)c4)cc23)ccc1CNC(=O)c1noc(C(C)(C)C)n1` (centres unmarked) [Example 205, 5-(tert-butyl)-N-(4-(6-(3-(4-((4-(4-(2,6-dioxopiperidin-3-yl)phenyl)piperidin-1-yl)methyl)-3-methyl-1H-pyrazol-1-yl)phenyl)pyrrolo[2,1-f][1,2,4]triazin-4-yl)-2-methylbenzyl)-1,2,4-oxadiazole-3-carboxamide] yielded a DC50 of less than 100 nM.

For `CC(C)(C)OC1CN(C(=O)NCc2ccc(-c3ncnn4cc(CCCCN5CCC(c6ccc(NC7CCC(=O)NC7=O)cn6)CC5)cc34)cc2F)C1` (centres unmarked) [Example 135, 3-tert-butoxy-N-[[4-[6-[4-[4-[5-[(2,6-dioxo-3-piperidyl)amino]-2-pyridyl]-1-piperidyl]butyl]pyrrolo[2,1-f][1,2,4]triazin-4-yl]-2-fluoro-phenyl]methyl]azetidine-1-carboxamide], the DC50 was less than 100 nM. For `CC(C)(C)c1nc(C(=O)NCc2ccc(-c3ncnn4cc(CCCCN5CCC(c6c(F)cc(C7CCC(=O)NC7=O)cc6F)CC5)cc34)cc2F)no1` (centres unmarked) [Example 136, 5-tert-butyl-N-[[4-[6-[4-[4-[4-(2,6-dioxo-3-piperidyl)-2,6-difluoro-phenyl]-1-piperidyl]butyl]pyrrolo[2,1-f][1,2,4]triazin-4-yl]-2-fluoro-phenyl]methyl]-1,2,4-oxadiazole-3-carboxamide] the value was less than 100 nM; for `Cc1cc(-c2ncnn3cc(CC[C@@H](F)CN4CCN(c5ccc(C6CCC(=O)NC6=O)cn5)CC4)cc23)ccc1CNC(=O)c1noc(C(C)(C)C)n1` (single isomer, unassigned) [Example 287], less than 100 nM; for `Cc1cc(-c2ncnn3cc(-c4ccc(CN5CCC(c6ccc(NC7CCC(=O)NC7=O)cc6)CC5)cc4)cc23)ccc1CNC(=O)c1ccc(C(C)(F)F)cc1` (centres unmarked) [Example 72, 4-(1,1-difluoroethyl)-N-[[4-[6-[4-[[4-[4-[(2,6-dioxo-3-piperidyl)amino]phenyl]-1-piperidyl]methyl]phenyl]pyrrolo[2,1-f][1,2,4]triazin-4-yl]-2-methyl-phenyl]methyl]benzamide], less than 100 nM. The molecule `CC(C)(C)c1nc(C(=O)NCc2ccc(-c3ncnn4cc(-c5ccc(CN6CC[C@@H](c7ccc(NC8CCC(=O)NC8=O)cc7)CC67CC7)cc5)cc34)cc2F)no1` (stereo partly drawn) [Example 38, 5-tert-butyl-N-[[4-[6-[4-[[(7R)-7-[4-[(2,6-dioxo-3-piperidyl)amino]phenyl]-4-azaspiro[2.5]octan-4-yl]methyl]phenyl]pyrrolo[2,1-f][1,2,4]triazin-4-yl]-2-fluoro-phenyl]methyl]-1,2,4-oxadiazole-3-carboxamide] gave a DC50 of less than 100 nM. For `Cc1cc(-c2ncnn3cc(CCCCN4CCC(c5ccc6c(N7CCC(=O)NC7=O)nn(C)c6c5)CC4)cc23)ccc1CNC(=O)c1noc(C2(C(F)(F)F)CC2)n1` [Example 282, N-(4-(6-(4-(4-(3-(2,4-dioxotetrahydropyrimidin-1(2H)-yl)-1-methyl-1H-indazol-6-yl)piperidin-1-yl)butyl)pyrrolo[2,1-f][1,2,4]triazin-4-yl)-2-methylbenzyl)-5-(1-(trifluoromethyl)cyclopropyl)-1,2,4-oxadiazole-3-carboxamide] the value was less than 100 nM; for `Cc1cc(-c2ccnc3nn(-c4ccc(CN5CCC(c6ccc(NC7CCC(=O)NC7=O)cc6)CC5)cc4)cc23)ccc1CNC(=O)c1noc(C(C)(C)C)n1` (centres unmarked) [Example 159, 5-tert-butyl-N-[[4-[2-[4-[[4-[4-[(2,6-dioxo-3-piperidyl)amino]phenyl]-1-piperidyl]methyl]phenyl]pyrazolo[3,4-b]pyridin-4-yl]-2-methyl-phenyl]methyl]-1,2,4-oxadiazole-3-carboxamide], 100 to 500 nM. In turn, `Cc1cc(-c2ncnn3cc(-c4csc(CN5CCC(c6ccc(C7CCC(=O)NC7=O)cc6)CC5)n4)cc23)ccc1CNC(=O)c1noc(C(C)(C)C)n1` (centres unmarked) [Example 208, 5-(tert-butyl)-N-(4-(6-(2-((4-(4-(2,6-dioxopiperidin-3-yl)phenyl)piperidin-1-yl)methyl)thiazol-4-4-yl)pyrrolo[2,1-f][1,2,4]triazin-4-yl)-2-methylbenzyl)-1,2,4-oxadiazole-3-carboxamide] gave a half-maximal degradation concentration (DC50) of less than 100 nM. `COc1cc(-c2cc3c(-c4ccc(CNC(=O)c5noc(C(C)(C)C)n5)c(C)c4)ncnn3c2)ccc1CN1CCC(c2ccc(NC3CCC(=O)NC3=O)cc2)CC1` (centres unmarked) [Example 16, 5-tert-butyl-N-[[4-[6-[4-[[4-[4-[(2,6-dioxo-3-piperidyl)amino]phenyl]-1-piperidyl]methyl]-3-methoxy-phenyl]pyrrolo[2,1-f][1,2,4]triazin-4-yl]-2-methyl-phenyl]methyl]-1,2,4-oxadiazole-3-carboxamide] gave a DC50 of less than 100 nM.

Molecule `CC(C)(C)c1nc(C(=O)NCc2ccc(-c3ncnn4cc(-c5ccc(CN6CCC(c7ccc(NC8CCC(=O)NC8=O)nc7)CC6)cc5)cc34)cc2F)no1` (centres unmarked) [Example 32, 5-tert-butyl-N-[[4-[6-[4-[[4-[6-[(2,6-dioxo-3-piperidyl)amino]-3-pyridyl]-1-piperidyl]methyl]phenyl]pyrrolo[2,1-f][1,2,4]triazin-4-yl]-2-fluoro-phenyl]methyl]-1,2,4-oxadiazole-3-carboxamide] had a half-maximal degradation concentration (DC50) of less than 100 nM. As for `Cc1cc(-c2ncnn3cc(-c4ccc(CN5CCC(c6ccc(NC7CCC(=O)NC7=O)cc6Cl)CC5)cc4)cc23)ccc1CNC(=O)c1noc(C(C)(C)C)n1` (centres unmarked) [Example 24, 5-tert-butyl-N-[[4-[6-[4-[[4-[2-chloro-4-[(2,6-dioxo-3-piperidyl)amino]phenyl]-1-piperidyl]methyl]phenyl]pyrrolo[2,1-f][1,2,4]triazin-4-yl]-2-methyl-phenyl]methyl]-1,2,4-oxadiazole-3-carboxamide], the DC50 was less than 100 nM.
